The numbers were not newly measured in patent publication US20250312496A1, “PROSTATE SPECIFIC MEMBRANE ANTIGEN (PSMA) LIGANDS” (Deutsches Krebsforschungszentrum Stiftung des öffentlichen …, priority 2022, published 2025), which cites them from elsewhere.

The structures appear in SMILES notation.

The test system of this series is prostate cancer.

On to `O=C(O)CC[C@H](NC(=O)N[C@@H](CCCCNC(=O)[C@H](Cc1ccc2ccccc2c1)NC(=O)[C@H]1CC[C@H](CNC(=O)CN2CCN(CC(=O)O)CCN(CC(=O)O)CCN(CC(=O)O)CC2)CC1)C(=O)O)C(=O)O` [225Ac-PSMA-617, metal not drawn], for which the PSA value result (both patients) was “fell below the detectability limit”. The response of patients result (two patients with extremely advanced and end-stage disease) is listed as “complete remission”.
